Source: patent EP0819121B1, “TRICYCLIC COMPOUNDS USEFUL FOR INHIBITION OF G-PROTEIN FUNCTION AND FOR TREATMENT OF PROLIFERATIVE DISEASES” (SCHERING CORPORATION, priority 1995, dated 1996)
Where two headings read alike, the source gives them in different places.

Legend:
[1] = biological target: farnesyl protein transferase (Homo sapiens, UniProt P49354+P49356); assay: FPT inhibition, in vitro enzyme assay (SPA, transfer of [3H]farnesyl to biotinylated Ras-peptide; or methods of WO 95/10516); assay type: biochemical; details: values given as ranges
Method: (§1) In some assays, FPT IC50 (inhibition of farnesyl protein transferase, in vitro enzyme assay) is determined by the methods described in WO 95/10516. COS Cell IC50 (Cell-Based Assay) and Cell Mat assay are determined by the methods described in WO 95/10516. GGPT IC50 (geranylgeranyl protein transferase, in vitro enzyme assay) and in vitro tumor activity can be determined by the methods disclosed in WO 95/10516.
In some assays, the inhibition of famesyi protein transferase was assayed by measuring the transfer of [^3H]farnesyl from [^3H]famesylpyrophosphate to biotinylated Ras-peptide (biotin-KKSKTKCVIM) using the conditions described below for each 96-well plate to be tested.
An assay buffer is prepared consisting of 40 mM Hepes, pH 7.5; 5 mM dithiothreitol; 20 mM magnesium chloride and 0.01 (v/v)% Igepal nonionic detergent.
A SPA (scintillation proximity assay) bead suspension is prepared consisting of 50 mg of Streptavidin SPA beads (Amersham Life-Science) suspended in 2.5 mL of PBS (phosphate buffered saline). Immediately prior to running the assay a stop solution is prepared consisting of 480 µL of the SPA bead suspension mixed with 6720 µL of a solution consisting of 250 mM EDTA (pH 8.0) and 0.5% Bovine Serium Albumin (Fraction V, 96-99% albumin).
(§2) In some assays, to determine FPT IC50, an assay mixture is prepared consisting of 480 µL of assay buffer and 3052.8 µL of water. This mixture is vortexed to homogeneity and 48 µL of the Ras peptide is added. The mixture is vortexed and 15.36 µL of FPP and 3.84 µL of [^3H]FPP are added and the mixture vortexed again. 37.5 µL of this assay mixture and 2.5µL of a DMSO solution (at test concentration) of the compound being tested are then added to each well of a Costar polypropylene U-bottom microtiter plate. The plate is sonicated for 15 minutes at 37°C and then shaken for 15 minutes on a plate shaker. 10 µL of the enzyme (recombinant Human farnesyl protein transferase) is added to each well using a Beckman Biomek 2000. The plate is incubated at room temperature for 20 minutes and then quenched with 75 µL of the stop solution. 100 µL of the quenched reaction mixture from each well is then transferred to a Wallac crosstalk-free microtiter plate using a Beckman Biomek 2000. Radioactivity is measured in a Wallac 1450 Microbeta plus liquid scintillation counter. Percent inhibition is calculated relative to an uninhibited control.
as §2, with “farnesyl transferase inhibition,” for “FPT IC50,”, “buffer,” for “buffer and”, “water and 240 µL of DMSO.” for “water.”, “40” for “37.5”, “is” for “and 2.5µL of a DMSO solution (at test concentration) of the compound being tested are”, “plate, each well of which contains a dry sample of the compound being tested.” for “plate.”

Tumor Cells = assay: Cell Mat assay, cell growth inhibition, tumor cells (methods of WO 95/10516); assay type: cell-based
Method: as §1

Normal Cells = assay: Cell Mat assay, cell growth inhibition, normal cells (methods of WO 95/10516); assay type: cell-based
Method: as §1

COS Cells = assay: COS cell assay, inhibition of RAS processing (cell-based, methods of WO 95/10516)
Method: as §1

[2] = read-out: Cell Growth Inhibition MAT Assay Tumor Cells IC50
[3] = read-out: Cell Growth Inhibition MAT Assay Normal Cells IC50
[4] = read-out: Activity in COS Cells Inhibition of RAS Processing IC50 in µM
[5] = read-out: Activity in COS Cells Inhibition of RAS Processing IC50

Row | SMILES | FPT Inhibition IC50 [1] [nM] | other results
1 | N[C@@H](CS)CN1CCN(C2c3ccc(Cl)cc3CCc3cc(Br)cnc32)CC1 (some centres unmarked) [EX1] | – | IC50 [1]: > 100000 nM
2 | N[C@@H](CSSC[C@H](N)C(=O)N1CCN(C2c3ccc(Cl)cc3CCc3cc(Br)cnc32)CC1)C(=O)N1CCN(C2c3ccc(Cl)cc3CCc3cc(Br)cnc32)CC1 (some centres unmarked) [EX 20, Step B] | 10 to 10000 | –
3 | N[C@@H](CS)C(=O)N1CCN(C2c3ccc(Cl)cc3CCc3cc(Br)cnc32)CC1 (some centres unmarked) [EX 21, Step B] | 10 to 10000 | –
4 | COc1ccc(CSC[C@H](NC(=O)OC(C)(C)C)C(=O)N2CCC(=C3c4ccc(Cl)cc4CCc4cccnc43)CC2)cc1 [EX 30] | 10 to 10000 | IC50 (Tumor Cells; [2]): > 50 µM; IC50 (Normal Cells; [3]): > 50 µM
5 | COc1ccc(CSC[C@H](N)C(=O)N2CCC(=C3c4ccc(Cl)cc4CCc4cccnc43)CC2)cc1 [EX 31] | 10 to 10000 | IC50 (Tumor Cells; [2]): 12.5 µM; IC50 (Normal Cells; [3]): 18 µM
6 | CNC(=O)C1CN(C2c3ccc(Cl)cc3CCc3cc(Br)cnc32)CCN1C(=O)Cc1cccnc1 (centres unmarked) [EX 32-A] | 10 to 10000 | –
7 | CC(C)NC(=O)C1CN(C2c3ccc(Cl)cc3CCc3cc(Br)cnc32)CCN1C(=O)Cc1cccnc1 (centres unmarked) [EX 32-B] | 10 to 10000 | –
8 | CC(C)NC(=O)C1CN(C2c3ccc(Cl)cc3CCc3cc(Br)cnc32)CCN1C(=O)Cc1ccncc1 (centres unmarked) [EX 32-C] | 10 to 10000 | –
9 | CCOC(=O)C1CN(C2c3ccc(Cl)cc3CCc3cc(Br)cnc32)CCN1C(=O)Cc1cccnc1 (centres unmarked) [EX 33] | 10 to 10000 | –
10 | CC(C)NC(=O)CC1CN(C2c3ccc(Cl)cc3CCc3cc(Br)cnc32)CCN1C(=O)Cc1cccnc1 (centres unmarked) [EX 34] | 10 to 10000 | –
11 | CCCC[C@H]1CN(C2c3ccc(Cl)cc3CCc3cc(Br)cnc32)CCN1C(=O)Cc1cc[n+]([O-])cc1 (some centres unmarked) [EX 36] | 10 to 10000 | IC50 (Tumor Cells; read-out: Cell Growth Inhibition MAT Assay Tumor Cells IC50 in µM): 1.6 µM; IC50 (COS Cells; [4]): 0.01 to 10 µM; IC50 (Normal Cells; read-out: Cell Growth Inhibition MAT Assay Normal Cells IC50 in µM): > 25 µM
12 | CCCC[C@H]1CN(C2c3ccc(Cl)cc3CCc3cc(Br)cnc32)CCN1C(=O)CC1CCN(C(N)=O)CC1 (some centres unmarked) [EX 37, Step C] | 10 to 10000 | IC50 (Tumor Cells; [2]): 3.1 µM; IC50 (COS Cells; [5]): 0.01 to 10 µM; IC50 (Normal Cells; [3]): 18 µM
13 | COCC[C@H]1CN(C2c3ccc(Cl)cc3CCc3cc(Br)cnc32)CCN1C(=O)CC1CCNCC1 (some centres unmarked) [EX 39, Step B] | 10 to 10000 | –
14 | COCC[C@H]1CN(C2c3ccc(Cl)cc3CCc3cc(Br)cnc32)CCN1C(=O)CC1CCN(C(N)=O)CC1 (some centres unmarked) [EX 39, Step C] | 10 to 10000 | IC50 (Tumor Cells; [2]): < 1.6 µM; IC50 (COS Cells; [5]): 0.01 to 10 µM; IC50 (Normal Cells; [3]): > 25 µM
15 | CCCCNC(=O)C1CN(C2c3ccc(Cl)cc3CCc3cc(Br)cnc32)CCN1C(=O)CC1CCN(C(N)=O)CC1 (centres unmarked) [EX 41] | 10 to 10000 | –
16 | O=C(NCc1cccnc1)C1CN(C2c3ccc(Cl)cc3CCc3cc(Br)cnc32)CCN1C(=O)CCc1ccccc1 (centres unmarked) [EX 43] | 10 to 10000 | –
17 | CCCCNC(=O)C1CN(C2c3ccc(Cl)cc3CCc3cc(Br)cnc32)CCN1C(=O)OC1CCN(C(C)=O)CC1 (centres unmarked) [EX 44] | 10 to 10000 | –
18 | CNC(=O)CC1CN(C2c3ccc(Cl)cc3CCc3cc(Br)cnc32)CCN1C(=O)Cc1cccnc1 (centres unmarked) [EX 46] | 10 to 10000 | –
19 | O=C(NC1CC1)C1CN(C2c3ccc(Cl)cc3CCc3cc(Br)cnc32)CCN1C(=O)Cc1ccncc1 (centres unmarked) [EX 47] | 10 to 10000 | –
20 | CN(Cc1ccccc1[N+](=O)[O-])C(=O)C1CN(C2c3ccc(Cl)cc3CCc3cc(Br)cnc32)CCN1C(=O)Cc1cccnc1 (centres unmarked) [EX 48] | – | IC50 [1]: 10000 to 100000 nM
21 | O=C(Cc1ccncc1)N1CCN(C2c3ccc(Cl)cc3CCc3cc(Br)cnc32)CC1CO (centres unmarked) [EX 50] | 10 to 10000 | –
22 | CNC(=O)CC1CN(C2c3ccc(Cl)cc3CCc3cc(Br)cnc32)CCN1C(=O)Cc1ccncc1 (centres unmarked) [EX 51] | 10 to 10000 | –
23 | O=C(CC1CN(C2c3ccc(Cl)cc3CCc3cc(Br)cnc32)CCN1C(=O)Cc1ccncc1)NC1CC1 (centres unmarked) [EX 54] | 10 to 10000 | –
24 | CNC(=O)C1CN(C2c3ccc(Cl)cc3CCc3cc(Br)cnc32)CCN1C(=O)Cc1ccncc1 (centres unmarked) [EX 55] | 10 to 10000 | –
25 | N[C@@H](CS)CN1CCC(=C2c3ccc(Cl)cc3CCc3cc(Br)cnc32)CC1 [EX 56A] | – | IC50 [1]: > 100000 nM
26 | CC(C)N(C)C(=O)C1CN(C2c3ccc(Cl)cc3CCc3cc(Br)cnc32)CCN1C(=O)Cc1ccncc1 (centres unmarked) [EX 56] | 10 to 10000 | –
27 | COCC[C@H]1CN(C2c3ccc(Cl)cc3CCc3cc(Br)cnc32)CCN1C(=O)Cc1cc[n+]([O-])cc1 (some centres unmarked) [Ex 38] | 10 to 10000 | IC50 (COS Cells; [4]): 0.01 to 10 µM
